Data taken from PubChem BioAssay (NCI).
Where “and” joins values, the source holds several entries; their conditions need not be identical. Equal entries are not always repeated.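 Five compound concentrations were applied to cells in 96-well plates for 48 hours; endpoints were derived by simple linear interpolation of the resulting dose-response curve. Here, GI50 denotes the concentration required for 50% inhibition of growth. TGI marks complete inhibition of growth.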

Columns and labels:
Test in all cases: inhibition of tumour cell growth, NCI panel, 48 h
[1] = system: NCI-H23 lung
[2] = system: SNB-19 CNS
[3] = system: NCI-H460 lung
[4] = system: DLD-1 colon
[5] = system: SK-MEL-2 melanoma
[6] = system: A549 NSCLC
[7] = system: 786-0 renal
[8] = system: HT29 colon
[9] = system: M14 melanoma
[10] = system: HOP-92 NSCLC

CN(C(=O)/C=C/c1ccccc1)C1C2CN3CCC(O2)C13 (stereo unspecified)
TGI [1]: > 100 µM
TGI [2]: > 100 µM
TGI [3]: > 100 µM
TGI [4]: > 100 µM
TGI [5]: > 100 µM
TGI [6]: > 100 µM
TGI [7]: > 100 µM
TGI [8]: > 100 µM
TGI [9]: > 100 µM

O=C(/C=C/c1ccccc1)Oc1cccc2cccnc12
TGI [1]: 20 µM
TGI [2]: > 75.2 µM
TGI [3]: 35.4 µM
TGI [4]: 31.4 µM
TGI [6]: 76.9 µM
TGI [10]: 81.6 µM
TGI [7]: > 100 µM
TGI [8]: 29.3 µM
TGI [9]: 14.8 µM

COC(=O)C1=CO[C@@H](OC2CC(CO)C(O)C(O)C2O)[C@@H]2[C@@H](C)[C@@H](OC(=O)/C=C/c3ccccc3)[C@@H](O)[C@H]12 (stereo partly specified) (tested in a mixture with another compound)
TGI [1]: > 100 µM
TGI [4]: > 100 µM
TGI [6]: > 100 µM
TGI [10]: > 100 µM
TGI [7]: > 100 µM
TGI [8]: > 100 µM
TGI [9]: > 100 µM

O=C(O)CCNS(=O)(=O)c1ccc(NC(=O)c2ccccc2)cc1
TGI [1]: > 100 µM
TGI [2]: > 100 µM
TGI [3]: > 100 µM
TGI [4]: > 100 µM
TGI [5]: > 100 µM
TGI [6]: > 100 µM
TGI [10]: > 100 µM
TGI [7]: > 100 µM
TGI [8]: > 100 µM
TGI [9]: > 100 µM

c1cc[c]([Sn][c]2ccccc2)cc1
GI50 [1]: 15 µM
TGI [1]: 23.3 µM
GI50 [2]: 20 µM
TGI [2]: 61 µM
GI50 [3]: 14 µM
TGI [3]: 20.2 µM
GI50 [4]: 15.4 µM
TGI [4]: 23.2 µM
GI50 [5]: 15.9 µM
TGI [5]: 37.7 µM
GI50 [6]: 21.5 µM
TGI [6]: 51.5 µM
GI50 [10]: 19 µM
TGI [10]: 47.5 µM
GI50 [7]: 17.4 µM
TGI [7]: 31.6 µM
GI50 [8]: 20.2 µM
TGI [8]: 37 µM
GI50 [9]: 24.4 µM
TGI [9]: 56.7 µM

CC1CC(C)CC(C)C(O)/C(C#N)=C/C=C/CC(C2CCCC2C(=O)O)OC(=O)CC(O)C(C)C1 (stereo unspecified)
GI50 [1]: 0.0183 µM and < 0.0105 µM
TGI [1]: 0.0919 µM and 0.0221 µM
GI50 [2]: 0.0232 µM
TGI [2]: 0.109 µM and 0.0359 µM
GI50 [3]: 0.0518 µM
TGI [3]: 0.371 µM
TGI [4]: 0.0819 µM
GI50 [5]: 0.00139 µM
TGI [5]: 0.00545 µM
GI50 [6]: 0.0681 µM
TGI [6]: 0.496 µM and 0.919 µM
TGI [10]: 0.0513 µM and 0.0143 µM
GI50 [7]: 0.0213 µM
TGI [7]: 0.171 µM and 0.0536 µM
GI50 [8]: 0.0644 µM and 0.0286 µM
TGI [8]: 0.574 µM and 0.321 µM
GI50 [9]: 0.026 µM
TGI [9]: 0.0971 µM and 0.0576 µM

CC[O-].CC[O-].O=C([CH-]C(=O)c1ccccc1)CCCCCCCCC(=O)[CH-]C(=O)c1ccccc1.[Ti+4]
GI50 [1]: 92 µM
TGI [1]: > 100 µM
GI50 [3]: > 100 µM
TGI [3]: > 100 µM
GI50 [4]: > 100 µM
TGI [4]: > 100 µM
GI50 [5]: > 100 µM
TGI [5]: > 100 µM
GI50 [6]: > 100 µM
TGI [6]: > 100 µM
GI50 [10]: 67.5 µM
TGI [10]: > 100 µM
GI50 [7]: > 100 µM
TGI [7]: > 100 µM
GI50 [8]: > 100 µM
TGI [8]: > 100 µM
GI50 [9]: > 100 µM
TGI [9]: > 100 µM

COC(=O)c1sc(C(=O)OC)c2c1CS(=O)C2
TGI [1]: > 100 µM
TGI [2]: > 100 µM
TGI [4]: > 100 µM
TGI [5]: > 100 µM
TGI [6]: > 100 µM
TGI [10]: > 100 µM
TGI [7]: > 100 µM
TGI [8]: > 100 µM
TGI [9]: > 100 µM

O=C1CC(CC(=O)C2CCCCC2=O)C(=O)N1 (stereo unspecified)
TGI [1]: > 100 µM
TGI [2]: > 100 µM
TGI [3]: > 100 µM
TGI [4]: > 100 µM
TGI [6]: > 100 µM
TGI [10]: > 100 µM
TGI [7]: > 100 µM
TGI [8]: > 100 µM
TGI [9]: > 100 µM

Cn1ccnc1CCc1c(Cl)cccc1Cl
TGI [1]: > 100 µM
TGI [3]: > 100 µM
TGI [4]: > 100 µM
TGI [5]: > 100 µM
TGI [6]: > 100 µM
TGI [10]: > 100 µM
TGI [7]: > 100 µM
TGI [8]: > 100 µM
TGI [9]: > 100 µM

CC1=C(C(=O)Nc2ccccc2C)C(c2ccc(Cl)cc2)C(C(=O)Nc2ccccc2C)=C(C)N1
TGI [1]: > 100 µM
TGI [2]: > 100 µM
TGI [3]: > 100 µM
TGI [4]: > 100 µM
TGI [5]: > 100 µM
TGI [6]: > 100 µM
TGI [10]: > 100 µM
TGI [7]: > 100 µM
TGI [8]: > 100 µM
TGI [9]: > 100 µM

O=C(N/N=C/c1ccccc1O)N/N=C/c1ccccc1O
TGI [1]: > 100 µM
TGI [2]: > 100 µM
TGI [3]: > 100 µM
TGI [4]: > 100 µM
TGI [5]: > 100 µM
TGI [6]: > 100 µM
TGI [10]: > 100 µM
TGI [7]: > 100 µM
TGI [8]: > 100 µM
TGI [9]: > 100 µM

C/C=C/C(C#N)O[Si](C)(C)C (stereo unspecified)
TGI [1]: > 100 µM
TGI [2]: > 100 µM
TGI [3]: > 100 µM
TGI [4]: > 100 µM
TGI [5]: > 100 µM
TGI [6]: > 100 µM
TGI [10]: > 100 µM
TGI [7]: > 100 µM
TGI [8]: > 100 µM
TGI [9]: > 100 µM

O=C(COc1ccccc1Cl)N1N=C(c2ccc(Cl)cc2)CC1(O)c1ccccc1 (stereo unspecified)
TGI [1]: > 100 µM
TGI [2]: > 100 µM
TGI [3]: > 100 µM
TGI [4]: > 100 µM
TGI [5]: > 100 µM
TGI [6]: > 100 µM
TGI [10]: > 100 µM
TGI [7]: > 100 µM
TGI [8]: > 100 µM
TGI [9]: > 100 µM

IC[P+]1(c2ccccc2)CCCC1
TGI [1]: > 100 µM
TGI [2]: > 100 µM
TGI [3]: 76.9 µM
TGI [4]: > 100 µM
TGI [5]: > 100 µM
TGI [6]: > 100 µM
TGI [7]: > 100 µM
TGI [8]: > 100 µM
TGI [9]: > 100 µM

CN1N=CSC12C(=O)N(c1ccccc1)C(=O)N2c1ccccc1 (stereo unspecified)
TGI [1]: > 100 µM
TGI [2]: > 100 µM
TGI [3]: > 100 µM
TGI [4]: > 100 µM
TGI [5]: > 100 µM
TGI [6]: > 100 µM
TGI [7]: > 100 µM
TGI [8]: > 100 µM
TGI [9]: > 100 µM

CCc1c(C#N)c(=O)[nH]c(=O)n1CCN1CCN(C(=O)NCCCCCCNC(=O)N2CCN(CCn3c(CC)c(C#N)c(=O)[nH]c3=O)CC2)CC1
TGI [2]: > 100 µM
TGI [3]: > 100 µM
TGI [4]: > 100 µM
TGI [6]: > 100 µM
TGI [7]: > 100 µM
TGI [8]: > 100 µM
TGI [9]: > 100 µM

N#CC(N)=Nc1ccccc1
TGI [1]: > 100 µM
TGI [2]: > 100 µM
TGI [3]: > 100 µM
TGI [4]: > 100 µM
TGI [5]: > 100 µM
TGI [6]: > 100 µM
TGI [10]: > 100 µM
TGI [7]: > 100 µM
TGI [8]: > 100 µM
TGI [9]: > 100 µM

O=c1ncccn1[C@@H]1O[C@H](CO)[C@H](O)C1O (stereo partly specified)
TGI [1]: > 100 µM
TGI [2]: > 100 µM
TGI [3]: > 100 µM
TGI [4]: > 100 µM
TGI [5]: > 100 µM
TGI [6]: > 100 µM
TGI [10]: > 100 µM
TGI [7]: > 100 µM
TGI [8]: > 100 µM
TGI [9]: > 100 µM

O=C1OCC2=C1C(c1cccc(F)c1)c1cc3c(cc1N2CCO)OCO3 (stereo unspecified)
GI50 [1]: 3.96 µM
TGI [1]: > 50 µM
GI50 [2]: 3 µM
TGI [2]: > 50 µM
GI50 [3]: 2.08 µM
TGI [3]: > 50 µM
GI50 [5]: 2.46 µM
TGI [5]: > 50 µM
GI50 [6]: 8.74 µM
TGI [6]: > 50 µM
GI50 [10]: 3.1 µM
TGI [10]: > 50 µM
GI50 [7]: 1.86 µM
TGI [7]: > 50 µM
GI50 [8]: 1.52 µM
TGI [8]: > 50 µM
GI50 [9]: 0.357 µM
TGI [9]: > 50 µM
